Legend:
[1] = tested on: HORSS: barley, including spring and winter (Hordeum vulgare); experiment: Post-emergent Test III, herbicidal activity in wheat and barley; type: in vivo; conditions: Table 9, 21 d; for pest or weed control at 35 g/ha: 35 g ai/ha; for pest or weed control at 70 g/ha: 70 g ai/ha; for GR20 HORSS: dose for 20 percent growth reduction, probit analysis
How it was run: (§1)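 Plants at the second to third true-leaf stage, grown in a greenhouse at about 18/17 °C with a 14 h photoperiod, were sprayed post-emergence at 187 L/ha with the high rate and ½× to 1/16× serial dilutions in an acetone/DMSO/crop-oil/surfactant carrier. Injury was rated visually at 21 d on a 0–100% scale, and GR20–GR90 were derived by probit analysis.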

[2] = tested on: KCHSC: kochia (Kochia scoparia); experiment: as above; type: in vivo; conditions: Table 9, 21 d; for pest or weed control at 35 g/ha: 35 g ai/ha; for pest or weed control at 70 g/ha: 70 g ai/ha; for GR50 KCHSC: dose for 50 percent growth reduction; for GR50 KCHSC / GR80 KCHSC: probit analysis; for GR80 KCHSC: dose for 80 percent growth reduction
How it was run: as §1

[3] = as above; type: in vivo, Lolium multiflorum, Lolium rigidum; conditions: Lolium multiflorum, post-emergence, 504 h, Table 9, post-emergent, 21 d, read-out: Visual Growth Reduction (%) 21 Days After Application LOLSS; for pest or weed control at 35 g/ha: 35 g ai/ha; for pest or weed control at 70 g/ha: 70 g ai/ha
How it was run: as §1

[4] = tested on: TRZSS: wheat, including spring and winter (Triticum aestivum); experiment: as above; type: in vivo; conditions: Table 9, 21 d; for GR20 TRZSS: dose for 20 percent growth reduction, probit analysis; for pest or weed control at 35 g/ha: 35 g ai/ha; for pest or weed control at 70 g/ha: 70 g ai/ha
How it was run: as §1

[5] = tested on: SETVI: green foxtail (Setaria viridis); experiment: as above; type: in vivo; conditions: Table 9, 21 d; for pest or weed control at 35 g/ha: 35 g ai/ha; for pest or weed control at 70 g/ha: 70 g ai/ha; for GR50 SETVI: dose for 50 percent growth reduction; for GR50 SETVI / GR80 SETVI: probit analysis; for GR80 SETVI: dose for 80 percent growth reduction
How it was run: as §1

[6] = tested on: APESV: bentgrass (Apera spica-venti); experiment: as above; type: in vivo; conditions: Table 9, 21 d; for pest or weed control at 35 g/ha: 35 g ai/ha; for pest or weed control at 70 g/ha: 70 g ai/ha; for GR50 APESV: dose for 50 percent growth reduction; for GR50 APESV / GR80 APESV: probit analysis; for GR80 APESV: dose for 80 percent growth reduction
How it was run: as §1

[7] = Hordeum vulgare, post-emergence, 504 h, post-emergent, read-out: Visual Growth Reduction (%) 21 Days After Application HORSS
[8] = Bassia scoparia, post-emergence, 504 h, post-emergent, read-out: Visual Growth Reduction (%) 21 Days After Application KCHSC
[9] = Triticum aestivum, post-emergence, 504 h, post-emergent, read-out: Visual Growth Reduction (%) 21 Days After Application TRZSS
[10] = Setaria viridis, post-emergence, 504 h, post-emergent, read-out: Visual Growth Reduction (%) 21 Days After Application SETVI
[11] = Apera spica-venti, post-emergence, 504 h, post-emergent, read-out: Visual Growth Reduction (%) 21 Days After Application APESV

SMILES	pest or weed control at 35 g/ha [1, 7] [%]	pest or weed control at 70 g/ha [1, 7] [%]	GR20 HORSS [1] [g ai/ha]	pest or weed control at 35 g/ha [2, 8] [%]	pest or weed control at 70 g/ha [2, 8] [%]	GR50 KCHSC [2] [g ai/ha]	GR80 KCHSC [2] [g ai/ha]	pest or weed control at 35 g/ha [3] [%]	pest or weed control at 70 g/ha [3] [%]	GR20 TRZSS [4] [g ai/ha]	pest or weed control at 35 g/ha [4, 9] [%]	pest or weed control at 70 g/ha [4, 9] [%]	pest or weed control at 35 g/ha [5, 10] [%]	pest or weed control at 70 g/ha [5, 10] [%]	GR50 SETVI [5] [g ai/ha]	GR80 SETVI [5] [g ai/ha]	pest or weed control at 35 g/ha [6, 11] [%]	pest or weed control at 70 g/ha [6, 11] [%]	GR50 APESV [6] [g ai/ha]	GR80 APESV [6] [g ai/ha]	further results
COC(=O)c1nc(-c2ccc(Br)cc2F)nc(N)c1OC [Compound 35]	60 to 74	60 to 74	8	75 to 84	85 to 94	8	37	0 to 29	30 to 44	2	75 to 84	75 to 84	0 to 29	30 to 44	79	>140	0 to 29	30 to 44	113	>140	–
COc1c(N)nc(-c2ccc(Br)cc2F)nc1C(=O)O [Compound 46]	60 to 74	60 to 74	8	75 to 84	85 to 94	10	45	0 to 29	30 to 44	1	75 to 84	75 to 84	0 to 29	30 to 44	>140	>140	0 to 29	0 to 29	>140	>140	pest or weed control at 140 g/ha ([1]; Hordeum vulgare, post-emergence, 504 h, 140 g ai/ha, post-emergent, read-out: Visual Growth Reduction (%) 21 Days After Application HORSS): 85 to 94%; pest or weed control at 140 g/ha ([2]; Bassia scoparia, post-emergence, 504 h, 140 g ai/ha, post-emergent, read-out: Visual Growth Reduction (%) 21 Days After Application KCHSC): 85 to 94%; pest or weed control at 140 g/ha ([3]; 140 g ai/ha): 45 to 59%; pest or weed control at 140 g/ha ([4]; Triticum aestivum, post-emergence, 504 h, 140 g ai/ha, post-emergent, read-out: Visual Growth Reduction (%) 21 Days After Application TRZSS): 85 to 94%; pest or weed control at 140 g/ha ([5]; Setaria viridis, post-emergence, 504 h, 140 g ai/ha, post-emergent, read-out: Visual Growth Reduction (%) 21 Days After Application SETVI): 30 to 44%; pest or weed control at 140 g/ha ([6]; Apera spica-venti, post-emergence, 504 h, 140 g ai/ha, post-emergent, read-out: Visual Growth Reduction (%) 21 Days After Application APESV): 45 to 59%
